Read-outs that look alike come from different tables or passages of the source. Marks after values point to notes of the source that are not given here.
Columns and labels:
[1] = test system: L6 myotubes; test: 2-3H-deoxyglucose uptake by skeletal muscle cells; assay type: cell-based, rat; conditions: for 2-deoxyglucose uptake, fold vs. control: 16 h
Experimental: The fold increase in 2-deoxy-glucose uptake in the presence of test compound by rat skeletal muscle cells (L-6 myotubes) was considered as % antihyperglycemic activity of the test compound which was carried out as follows. L6 myotubes were incubated with increasing concentrations of 14b and the standard drug rosiglitazone (10 μM) for 16 h. After incubation glucose uptake was assessed for 5 min in HEPES-buffered saline [140 mM NaCl, 20 mM HEPES, 5 mM KCl, 2.5 mM MgSO4, 1 mM CaCl2 (pH 7.4)] containing 10 μM 2-deoxyglucose (0.5 μCi/ml 2-[^3H]-deoxyglucose) at room temperature. Subsequently cells were rinsed with an ice-cold solution containing 0.9% NaCl and 20 mM D-glucose. To quantify the radioactivity incorporated, cells were lysed with 0.05 N NaOH and lysates were counted with scintillation fluid in a β-counter. Nonspecific uptake was determined in the presence of cytochalasin B (50 μM) during the assay, and these values were subtracted from all other values. Glucose uptake was measured in triplicate and normalized to total protein, was expressed as fold increase with respect to control cells.

[2] = test system: sucrose loaded rat; test: Sucrose loaded rat model (SLM), oral tolerance test; assay type: in vivo; set-up: % Antihyperglycemic activity SLM: concentration or dose not given beside the values
Excerpt: On the day of experiment blood glucose of all the overnight fasted animals was checked by Glucostrips (Roche) using Glucometer (ACCU-CHEK II; Roche Diagnostics, USA). […] Animals were divided into groups consisting of five animals in each. […] The test compounds and standard drug was always prepared in the vehicle 1% gum acacia. […] Food (not water) was removed from the cages during the experimental period. […] Comparing the AUC of test sample or drug treated groups compared to control group determined the percent improvement in OGTT by test sample and standard drugs and termed as antihyperglycaemic activity. Statistical analysis between the groups was done by employing Students t test

[3] = test system: db/+ mice; test: OGTT in glucose loaded db/+ mice; assay type: in vivo
Experimental: Male C57BL6-db/+ mice (12-18 week old, 18-20 g body weight) were procured from National Animal Laboratory Centre (NALC) of Central Drug Research Institute (CDRI), Lucknow, India Animals were housed in polypropylene cages, in controlled environment (temperature 25±2° C.; humidity 50-60%; light 300 lux at floor level with regular 12 h light-12 h dark cycle; noise level 50 decibel; ventilation 10-15 air changes per hour). They were provided with a standard laboratory diet (Dayal Industry, Barabanki, Lucknow) unless stated otherwise and has free access to water. The mice having fasting blood glucose values varying between 65-80 mg/dl were finally included in this study. Animals were divided into groups consisting of six animals in each. Group one was considered as control group, where as the other groups were termed as experimental groups. Rats of experimental groups were given the desired doses of the test samples i.e. 5, 10, 20, 30 and 50 mg/kg body weight. The test samples were always prepared in the vehicle 1% gum acacia. An oral glucose load of 3.0 g/kg was given to the animals of all the groups 30 min post administration of the test samples/vehicle. Blood glucose levels of the animals of all the groups were again measured at 30, 60, 90 and 120 min post glucose load. Food (not water) was removed from the cages during the experimental period. […] Comparing the AUC of test sample treated to that of control group determined the percent improvement in OGTT by test sample which is termed as anti-hyperglycaemic activity. Statistical comparison between the groups was done by employing Students t test.

[4] = test system: high fructose high fat fed Syrian golden hamsters; test: Antidyslipidemic activity in high fructose high fat fed Syrian golden hamsters; assay type: in vivo
Experimental: Male Syrian golden hamsters weighing 100-120 g were divided into groups each containing six animals. Dyslipidemia was produced by feeding the animals with high fructose high fat diet (60% fructose, 13% fat) for 30 to 40 days. Dyslipidemic hamsters were divided into groups based on their Serum lipid profile. The dyslipidemic animals had free access to HFD and water throughout the experimental period. The fine suspension of 14b was fed orally at a dose of 30 mg/kg for 7 days to the animals. Control animals were given drug vehicle only, served as sham treated control. Body weight and diet intake of each animal group were recorded daily to check the effect of the test samples on food intake and body weight of the animals. At the end of the experiment period i.e. on day 8th, the blood of each animal was withdrawn from retro-orbital plexus. After keeping the tubes for 15 min. in cold, Serum was separated. Biochemical analysis of Serum was performed on the same day for triglycerides (TG), total cholesterol (TC) and HDL-cholesterol and LDL-cholesterol contents using Cobas Integra 400 plus analyzer kits. All statistical analysis will be performed with Graph Pad Prism Software. One way ANOVA, all pair wise multiple comparison procedure (Tukey test). Data will be reported as mean±SEM.

[5] = Pharmacokinetic study after oral and intravenous dose in rats; assay type: in vivo; set-up: Vd/F / Vd: unit not given here; conditions: rat
Excerpt: In order to study its bioavailability, the method of its quantitative determination in plasma matrices in rat was developed and validated. […] The method was applied in the analysis of PK samples obtained after oral and intravenous dose administration in rats.

Question: With `C/C(=N\OCCN1CCCCC1)[C@H]1CC[C@H]2[C@@H]3CC=C4C[C@@H](O)CC[C@]4(C)[C@H]3CC[C@]12C` [Compound 14b, 3β-Hydroxy-pregna-5-en-20-one-O-(2-piperidin-1-yl-ethyl)-oxime] as the compound, how does the “2-deoxyglucose uptake, fold vs. control” value ([1]; 1.0 μM) read?
Answer: 1.59±0.28 fold

Question: And the “2-deoxyglucose uptake, fold vs. control” value ([1]; 2.5 μM)?
Answer: 2.61±0.45 fold

Question: What about the “2-deoxyglucose uptake, fold vs. control” value ([1]; 5.0 μM) of the same compound?
Answer: 2.88±0.74 fold

Question: And the “2-deoxyglucose uptake, fold vs. control” value ([1]; 10 μM)?
Answer: 3.37±0.12 fold

Question: What about the “glucose uptake in presence of cytochalasin-B” value ([1]; cytochalasin-B 50 μM added to transport solution) of the same compound?
Answer: completely blocked

Question: And the “minimum concentration increasing glucose uptake to a significant level” value ([1]; p<0.05)?
Answer: 1.0 µM

Question: And the “Blood glucose profile, 0 min post glucose load” value ([2]; 100 mg/kg)?
Answer: 94.2 ± 2.6 mg/dL

Question: What about the “Blood glucose profile, 30 min post glucose load” value ([2]; 100 mg/kg) of the same compound?
Answer: 120.8 ± 2.1 mg/dL

Question: And the “Blood glucose profile, 60 min post glucose load” value ([2]; 100 mg/kg)?
Answer: 101.4 ± 2.9 mg/dL

Question: What about the “Blood glucose profile, 90 min post glucose load” value ([2]; 100 mg/kg) of the same compound?
Answer: 89.4 ± 3.3 mg/dL

Question: What about the “Blood glucose profile, 120 min post glucose load” value ([2]; 100 mg/kg) of the same compound?
Answer: 69.4 ± 2.3 mg/dL

Question: What about the “% Antihyperglycemic activity SLM” value ([2]; Table 2, sucrose loaded rat) of the same compound?
Answer: 24.4%

Question: And the “anti-diabetic activity, in words” value ([2]; all the models including db/+ mice models)?
Answer: better anti-diabetic activity

Question: And the “% Antihyperglycaemic activity (OGTT improvement)” value (“% Antihyperglycaemic activity” for short) ([3]; 5 mg/kg)?
Answer: 10.5%

Question: And the “% Antihyperglycaemic activity” value ([3]; 10 mg/kg)?
Answer: 19.8%

Question: And the “% Antihyperglycaemic activity” value ([3]; 20 mg/kg)?
Answer: 24.5%

Question: What about the “% Antihyperglycaemic activity” value ([3]; 30 mg/kg) of the same compound?
Answer: 28.9%

Question: And the “% Antihyperglycaemic activity” value ([3]; 50 mg/kg)?
Answer: 35.9%

Question: What about the “enhancement of lipoprotein lipase” value ([4]; 30 mg/kg oral) of the same compound?
Answer: 19.4%

Question: What about the “enhancement of serum HDL-cholesterol” value ([4]; 30 mg/kg oral) of the same compound?
Answer: 17.8%

Question: What about the “lowering of LDL-cholesterol (LDL-C) level” value ([4]; 30 mg/kg oral) of the same compound?
Answer: 32.3%

Question: What about the “lowering of non-esterified fatty acid (NEFA)” value ([4]; 30 mg/kg oral) of the same compound?
Answer: 12.3%

Question: What about the “lowering of serum glycerol level” value ([4]; 30 mg/kg oral) of the same compound?
Answer: 25.7%

Question: And the “lowering of serum triglycerides level (TG)” value ([4]; 30 mg/kg oral)?
Answer: 32.8%

Question: What about the “lowering of total cholesterol (T-Chol) level” value ([4]; 30 mg/kg oral) of the same compound?
Answer: 23.1%

Question: What about the “Chol, change vs HFD control (in parentheses)” value ([4]; 30 mg/kg p.o., 7 days) of the same compound?
Answer: (−23.1)* %

Question: What about the “Glycerol, change vs HFD control (in parentheses)” value ([4]; 30 mg/kg p.o., 7 days) of the same compound?
Answer: (−25.7) %

Question: What about the “HDL-C, change vs HFD control (in parentheses)” value ([4]; 30 mg/kg p.o., 7 days) of the same compound?
Answer: (+17.8) %

Question: And the “LDL-C, change vs HFD control (in parentheses)” value ([4]; 30 mg/kg p.o., 7 days)?
Answer: (−32.3)* %

Question: And the “Lipoprotein lipase, change vs HFD control (in parentheses)” value ([4]; 30 mg/kg p.o., 7 days)?
Answer: (+19.4) %

Question: What about the “NEFA, change vs HFD control (in parentheses)” value ([4]; 30 mg/kg p.o., 7 days) of the same compound?
Answer: (−12.3) %

Question: What about the “TG, change vs HFD control (in parentheses)” value ([4]; 30 mg/kg p.o., 7 days) of the same compound?
Answer: (−32.8)* %

Question: And the Chol ([4]; 30 mg/kg p.o., 7 days, serum)?
Answer: 257.2 ± 22.4 mg/dL

Question: And the Glycerol ([4]; 30 mg/kg p.o., 7 days, serum)?
Answer: 1004.9 ± 40.2 µmol/L

Question: And the HDL-C ([4]; 30 mg/kg p.o., 7 days, serum)?
Answer: 168.2 ± 8.90 mg/dL

Question: And the LDL-C ([4]; 30 mg/kg p.o., 7 days, serum)?
Answer: 179.6 ± 13.2 mg/dL

Question: And the Lipoprotein lipase ([4]; 30 mg/kg p.o., 7 days, serum)?
Answer: 36.3 ± 3.90 U/L

Question: What about the NEFA ([4]; 30 mg/kg p.o., 7 days, serum) of the same compound?
Answer: 5.70 ± 0.42 mmol/L

Question: And the TG ([4]; 30 mg/kg p.o., 7 days, serum)?
Answer: 501.8 ± 45.7 mg/dL

Question: And the “effect on body weight, in words” value ([4]; vs control group, FIG. 10)?
Answer: effectively inhibited the rise in body weight

Question: What about the “absorption, in words” value ([5]; oral dosing) of the same compound?
Answer: slow absorption

Question: And the “time at which plasma concentrations peaked post-dose” value ([5]; oral dosing)?
Answer: ≥ 10 h

Question: What about the AUC(0-t) ([5]; plasma, intravenous route) of the same compound?
Answer: 826 ± 88.7 ng·h/mL

Question: And the C0 ([5]; plasma, intravenous route)?
Answer: 166 ± 90.2 ng/mL

Question: And the MRT ([5]; plasma, intravenous route)?
Answer: 25.3 ± 1.99 h

Question: What about the clearance ([5]; plasma, intravenous route) of the same compound?
Answer: 206 mL/min/kg

Question: And the half-life ([5]; plasma, intravenous route, read-out: T1/2 (converted))?
Answer: 15.4 ± 1.25 h

Question: What about the Vd ([5]; plasma, intravenous route, read-out: Vz) of the same compound?
Answer: 268 ± 11.3

Question: What about the AUC(0-inf) ([5]; plasma, oral route) of the same compound?
Answer: 1210 ± 166 ng·h/mL

Question: What about the CL/F ([5]; plasma, oral route) of the same compound?
Answer: 603 mL/min/kg

Question: What about the Cmax ([5]; plasma, oral route) of the same compound?
Answer: 40.4 ± 7.03 ng/mL

Question: And the MRT ([5]; plasma, oral route)?
Answer: 23.2 ± 1.31 h

Question: And the bioavailability ([5]; plasma, oral route)?
Answer: 33.6%

Question: And the half-life ([5]; plasma, oral route, read-out: T1/2 (converted))?
Answer: 14.3 ± 0.95 h

Question: And the Vd/F ([5]; plasma, oral route, read-out: Vz/F)?
Answer: 739 ± 87.1

Question: And the half-life ([5]; plasma, route not stated, read-out: elimination half-life)?
Answer: > 14 h

Question: What about the “clearance, in words” value [5] of the same compound?
Answer: large clearance

Question: What about the “bio-availability, in words” value ([5]; in vivo) of the same compound?
Answer: good bio-availability

Question: And the melting point?
Answer: 130 to 135 °C

Reference: US20160009752A1, “[…]-OXIMINO-AMINOALKYLETHERS AND PROCESS FOR PREPARATION THEREOF, USEFUL AS ANTIDIABETIC AND […] AGENTS” (COUNCIL OF SCIENTIFIC & INDUSTRIAL RESEARCH, priority 2013, published 2016)
